Numbered stars: 1 amine (or outer) side, 2 acyl side, 3 side chain; on linkers, the order of the positions; unused ones are H or OH. Square brackets hold non-standard residues; d marks the D form. Primed or numbered codes have the meaning given here. Side chains are listed from the residue outwards. Ends that are not written are not given here. * marks the point of attachment. C18 diacid = O=C(O)CCCCCCCCCCCCCCCCC(=O)*; C16 diacid = O=C(O)CCCCCCCCCCCCCCC(=O)*; γGlu = O=C(O)[C@H](CCC(=O)[*:2])N[*:1]; Stearoyl = CCCCCCCCCCCCCCCCCC(=O)*; Palmitoyl = CCCCCCCCCCCCCCCC(=O)*; Nle = CCCC[C@H](N)C(=O)O; PEG2′ = not defined here; Aib = CC(C)(N)C(=O)O
The substances below were run on human hepatic stellate cells (LX-2) (assay: In vitro inhibition of hepatic fibrosis: expression of activation marker α-SMA in LX-2 cells (Western Blot, β-actin internal reference)). Conditions: 10.0 μM, 48 hours, negative control (PBS) = 100%.
Assay type: cell-based
Protocol: Hepatic stellate cell strain LX-2 was selected to study and observe the effect of different doses of test substances on the expression of LX-2 cell activation marker α-SMA. Hepatic stellate cell LX-2 was laid on 35 mm cell culture plate, cultured with DMEM (high glucose)+10% FBS+1% double-antibody culture medium (Thermo Fisher), placed overnight when the cells grew to 70% convergence at 37° C. and under the condition of 5% CO2, and treated with the above GLP-1R/GCGR dual target agonist polypeptides 1-48 (dissolved in PBS) for 48 hours the next day morning to extract cell protein, carry out Western Blot, and take β-actin as internal reference and analyze the expression quantities of α-SMA and β-actin by a gray level of Image J 1.50i. PBS with the same volume as that in experimental group was added in negative control. […] The integrating gray level of α-SMA/β-actin in the negative control group was 100% to analyze the in vitro inhibition activity of hepatic fibrosis of tested polypeptide.

Row | Substance | Relative expression of α-SMA (α-SMA/β-actin, %)
1 | His-(D-Ser)-Gln-Gly-Thr-Phe-Thr-Ser-Asp-Tyr-Ser-Lys-Tyr-Leu-Asp-Glu-Lys-Ala-Ala-Lys(PEG2-PEG2-γGlu-CO(CH2)16CO2H)-Glu-Phe-Ile-Glu-Trp-Leu-Leu-Arg-Ala-NH2 (H[dS]QGTFTSDYSKYLDEKAAK([PEG2′-PEG2′-γGlu-C18 diacid])EFIEWLLRA-NH2) [Compound 18] | 45.60%
2 | His-(D-Ser)-Gln-Gly-Thr-Phe-Thr-Ser-Asp-Tyr-Ser-Lys-Tyr-Leu-Asp-Ser-Lys(PEG2-PEG2-γGlu-CO(CH2)16CH3)-Ala-Ala-His-Asp-Phe-Val-Glu-Trp-Leu-Leu-Arg-Ala-NH2 (H[dS]QGTFTSDYSKYLDSK([PEG2′-PEG2′-γGlu-Stearoyl])AAHDFVEWLLRA-NH2) [Compound 25] | 53.34%
3 | His-(D-Ser)-Gln-Gly-Thr-Phe-Thr-Ser-Asp-Tyr-Ser-Lys(PEG2-PEG2-γGlu-CO(CH2)14CH3)-Lys-Leu-Asp-Aib-Arg-Arg-Ala-Gln-Asp-Phe-Val-Gln-Trp-Leu-Met-Asn-Thr-Gly-Gly-Pro-Ser-Ser-Gly-Ala-Pro-Pro-Pro-Ser-NH2 (H[dS]QGTFTSDYSK([PEG2′-PEG2′-γGlu-Palmitoyl])KLD[Aib]RRAQDFVQWLMNTGGPSSGAPPPS-NH2) [Compound 1] | 63.5%
4 | His-Aib-Gln-Gly-Thr-Phe-Thr-Ser-Asp-Lys(PEG2-PEG2-γGlu-CO(CH2)16CH3)-Ser-Lys-Tyr-Leu-Asp-Glu-Arg-Arg-Ala-Gln-Asp-Phe-Val-Gln-Trp-Leu-Leu-Asp-Gly-Gly-Pro-Ser-Ser-Gly-Ala-Pro-Pro-Pro-Ser-NH2 (H[Aib]QGTFTSDK([PEG2′-PEG2′-γGlu-Stearoyl])SKYLDERRAQDFVQWLLDGGPSSGAPPPS-NH2) [Compound 14] | 42.80%
5 | His-(D-Ser)-Gln-Gly-Thr-Phe-Thr-Ser-Asp-Lys(PEG)-PEG2-γGlu-CO(CH2)16CO2H)-Ser-Lys-Tyr-Leu-Asp-Aib-Arg-Arg-Ala-Gln-Asp-Phe-Val-Gln-Trp-Leu-Met-Asn-Thr-Gly-Gly-Pro-Ser-Ser-Gly-Ala-Pro-Pro-Pro-Ser-NH2 (H[dS]QGTFTSDKSKYLD[Aib]RRAQDFVQWLMNTGGPSSGAPPPS-NH2; not fully specified (residue 10); also: first PEG unit on Lys10 of unstated size) [Compound 5] | 36.04%
6 | His-(D-Ser)-Gln-Gly-Thr-Phe-Thr-Ser-Asp-Tyr-Ser-Lys-Tyr-Leu-Asp-Ser-Lys(PEG2-PEG2-γGlu-CO(CH2)16CH3)-Ala-Ala-His-Asp-Phe-Val-Glu-Trp-Leu-Leu-Asn-Gly-Gly-Pro-Ser-Ser-Gly-Aln-Pro-Pro-Pro-Ser-NH2 (H[dS]QGTFTSDYSKYLDSK([PEG2′-PEG2′-γGlu-Stearoyl])AAHDFVEWLLNGGPSSGAPPPS-NH2; also: position 35: name writes Aln, letters give A) [Compound 22] | 40.56%
7 | His-(D-Ser)-Gln-Gly-Thr-Phe-Thr-Ser-Asp-Lys(PEG2-PEG2-γGlu-CO(CH2)16CO2H)-Ser-Lys-Tyr-Leu-Asp-Aib-Arg-Arg-Ala-Gln-Asp-Phe-Val-Gln-Trp-Leu-Leu-Asn-Thr-Gly-Gly-Pro-Ser-Ser-Gly-Ala-Pro-Pro-Pro-Ser-NH2 (H[dS]QGTFTSDK([PEG2′-PEG2′-γGlu-C18 diacid])SKYLD[Aib]RRAQDFVQWLLNTGGPSSGAPPPS-NH2) [Compound 47] | 40.36%
8 | His-Aib-Gln-Gly-Thr-Phe-Thr-Ser-Asp-Lys(PEG2-PEG2-γGlu-CO(CH2)16CO2H)-Ser-Lys-Tyr-Leu-Asp-Aib-Arg-Arg-Ala-Gln-Asp-Phe-Val-Gln-Trp-Leu-Leu-Asp-Gly-Gly-Pro-Ser-Ser-Gly-Ala-Pro-Pro-Pro-Ser-NH2 (H[Aib]QGTFTSDK([PEG2′-PEG2′-γGlu-C18 diacid])SKYLD[Aib]RRAQDFVQWLLDGGPSSGAPPPS-NH2) [Compound 19] | 39.75%
9 | His-(D-Ser)-Gln-Gly-Thr-Phe-Thr-Ser-Asp-Tyr-Ser-Lys-Tyr-Leu-Asp-Lys(PEG2-PEG2-γGlu-CO(CH2)16CH3)-Arg-Arg-Ala-Gln-Asp-Phe-Val-Gln-Trp-Leu-Met-Asn-Thr-Gly-Gly-Pro-Ser-Ser-Gly-Ala-Pro-Pro-Pro-Ser-NH2 (H[dS]QGTFTSDYSKYLDK([PEG2′-PEG2′-γGlu-Stearoyl])RRAQDFVQWLMNTGGPSSGAPPPS-NH2) [Compound 36] | 42.49%
10 | His-Aib-Gln-Gly-Thr-Phe-Thr-Ser-Asp-Lys(PEG2-PEG2-γGlu-CO(CH2)14CO2H)-Ser-Lys-Tyr-Leu-Asp-Glu-Arg-Arg-Ala-Gln-Asp-Phe-Val-Gln-Trp-Leu-Leu-Asp-Gly-Gly-Pro-Ser-Ser-Gly-Ala-Pro-Pro-Pro-Ser-NH2 (H[Aib]QGTFTSDK([PEG2′-PEG2′-γGlu-C16 diacid])SKYLDERRAQDFVQWLLDGGPSSGAPPPS-NH2) [Compound 13] | 37.93%
11 | His-Aib-Gln-Gly-Thr-Phe-Thr-Ser-Asp-Lys(PEG2-PEG2-γGlu-CO(CH2)14CH3)-Ser-Lys-Tyr-Leu-Asp-Aib-Arg-Arg-Ala-Gln-Asp-Phe-Val-Gln-Trp-Leu-Leu-Asp-Gly-Gly-Pro-Ser-Ser-Gly-Ala-Pro-Pro-Pro-Ser-NH2 (H[Aib]QGTFTSDK([PEG2′-PEG2′-γGlu-Palmitoyl])SKYLD[Aib]RRAQDFVQWLLDGGPSSGAPPPS-NH2) [Compound 8] | 38.25%
12 | His-(D-Ser)-Gln-Gly-Thr-Phe-Thr-Ser-Asp-Lys(PEG2-PEG2-CO(CH2)16CH3)-Ser-Lys-Tyr-Leu-Asp-Aib-Arg-Arg-Ala-Gln-Asp-Phe-Val-Gln-Trp-Leu-Met-Asn-Thr-Gly-Gly-Pro-Ser-Ser-Gly-Ala-Pro-Pro-Pro-Ser-NH2 (H[dS]QGTFTSDK([PEG2′-PEG2′-Stearoyl])SKYLD[Aib]RRAQDFVQWLMNTGGPSSGAPPPS-NH2) [Compound 32] | 37.14%
13 | His-(D-Ser)-Gln-Gly-Thr-Phe-Thr-Ser-Asp-Tyr-Ser-Lys-Tyr-Leu-Asp-Lys(PEG2-PEG2-γGlu-CO(CH2)16CO2H)-Arg-Arg-Ala-Gln-Asp-Phe-Val-Gln-Trp-Leu-Met-Asn-Thr-Gly-Gly-Pro-Ser-Ser-Gly-Ala-Pro-Pro-Pro-Ser-NH2 (H[dS]QGTFTSDYSKYLDK([PEG2′-PEG2′-γGlu-C18 diacid])RRAQDFVQWLMNTGGPSSGAPPPS-NH2) [Compound 34] | 38.18%
14 | His-(D-Ser)-Gln-Gly-Thr-Phe-Thr-Ser-Asp-Tyr-Ser-Lys(PEG2-PEG2-CO(CH2)14CH3)-Lys-Leu-Asp-Aib-Arg-Arg-Ala-Gln-Asp-Phe-Val-Gln-Trp-Leu-Met-Asn-Thr-Gly-Gly-Pro-Ser-Ser-Gly-Ala-Pro-Pro-Pro-Ser-NH2 (H[dS]QGTFTSDYSK([PEG2′-PEG2′-Palmitoyl])KLD[Aib]RRAQDFVQWLMNTGGPSSGAPPPS-NH2) [Compound 9] | 41.86%
15 | His-(D-Ser)-Gln-Gly-Thr-Phe-Thr-Ser-Asp-Lys(PEG2-PEG2-γGlu-CO(CH2)16CO2H)-Ser-Lys-Tyr-Leu-Asp-Aib-Arg-Arg-Ala-Gln-Asp-Phe-Val-Gln-Trp-Leu-Nle-Asn-Thr-Gly-Gly-Pro-Ser-Ser-Gly-Ala-Pro-Pro-Pro-Ser-NH2 (H[dS]QGTFTSDK([PEG2′-PEG2′-γGlu-C18 diacid])SKYLD[Aib]RRAQDFVQWL[Nle]NTGGPSSGAPPPS-NH2) [Compound 48] | 43.25%
16 | His-(D-Ser)-Gln-Gly-Thr-Phe-Thr-Ser-Asp-Lys(PEG2-PEG2-γGlu-CO(CH2)14CH3)-Ser-Lys-Tyr-Leu-Asp-Aib-Arg-Arg-Ala-Gln-Asp-Phe-Val-Gln-Trp-Leu-Leu-Asn-Thr-Gly-Gly-Pro-Ser-Ser-Gly-Ala-Pro-Pro-Pro-Ser-NH2 (H[dS]QGTFTSDK([PEG2′-PEG2′-γGlu-Palmitoyl])SKYLD[Aib]RRAQDFVQWLLNTGGPSSGAPPPS-NH2) [Compound 43] | 42.34%
17 | His-(D-Ser)-Gln-Gly-Thr-Phe-Thr-Ser-Asp-Tyr-Ser-Lys-Tyr-Leu-Asp-Glu-Lys-Ala-Ala-Lys(PEG2-PEG2-γGlu-CO(CH2)16CH3)-Glu-Phe-Ile-Glu-Trp-Leu-Leu-Asn-Gly-Gly-Pro-Ser-Ser-Gly-Ala-Pro-Pro-Pro-Ser-NH2 (H[dS]QGTFTSDYSKYLDEKAAK([PEG2′-PEG2′-γGlu-Stearoyl])EFIEWLLNGGPSSGAPPPS-NH2) [Compound 28] | 37.62%
18 | His-Aib-Gln-Gly-Thr-Phe-Thr-Ser-Asp-Lys(PEG2-PEG2-γGlu-CO(CH2)16CO2H)-Ser-Lys-Tyr-Leu-Asp-Glu-Arg-Arg-Ala-Gln-Asp-Phe-Val-Gln-Trp-Leu-Leu-Asp-Gly-Gly-Pro-Ser-Ser-Gly-Ala-Pro-Pro-Pro-Ser-NH2 (H[Aib]QGTFTSDK([PEG2′-PEG2′-γGlu-C18 diacid])SKYLDERRAQDFVQWLLDGGPSSGAPPPS-NH2) [Compound 15] | 57.29%
19 | His-(D-Ser)-Gln-Gly-Thr-Phe-Thr-Ser-Asp-Tyr-Ser-Lys-Tyr-Leu-Asp-Glu-Lys-Ala-Ala-Lys(PEG2-PEG2-γGlu-CO(CH2)16CH3)-Glu-Phe-Ile-Glu-Trp-Leu-Leu-Arg-Ala-NH2 (H[dS]QGTFTSDYSKYLDEKAAK([PEG2′-PEG2′-γGlu-Stearoyl])EFIEWLLRA-NH2) [Compound 24] | 32.42%
20 | His-(D-Ser)-Gln-Gly-Thr-Phe-Thr-Ser-Asp-Tyr-Ser-Lys-Tyr-Leu-Asp-Glu-Lys-Ala-Ala-Lys(PEG2-PEG2-γGlu-CO(CH2)16CO2H)-Glu-Phe-Ile-Glu-Trp-Leu-Leu-Asn-Gly-Gly-Pro-Ser-Ser-Gly-Ala-Pro-Pro-Pro-Ser-NH2 (H[dS]QGTFTSDYSKYLDEKAAK([PEG2′-PEG2′-γGlu-C18 diacid])EFIEWLLNGGPSSGAPPPS-NH2) [Compound 26] | 44.44%
